Experimental data published in the CheMixHub viscosity set.

Test: xn = mol fraction of the nth substance listed

Cc1ccccc1 + CO
Details	viscosity [mPa·s]
293.15 K, 101 kPa, x1 = 0.0405	0.5903
293.15 K, 101 kPa, x1 = 0.0868	0.5951
293.15 K, 101 kPa, x1 = 0.1401	0.6009
293.15 K, 101 kPa, x1 = 0.2022	0.6067
293.15 K, 101 kPa, x1 = 0.2755	0.6121
293.15 K, 101 kPa, x1 = 0.3632	0.6167
293.15 K, 101 kPa, x1 = 0.4701	0.6194
293.15 K, 101 kPa, x1 = 0.6033	0.6184
293.15 K, 101 kPa, x1 = 0.7739	0.6098
293.15 K, 101 kPa, x2 = 0.2	0.582
293.15 K, 101 kPa, x2 = 0.4	0.601
293.15 K, 101 kPa, x2 = 0.6	0.62
293.15 K, 101 kPa, x2 = 0.8	0.623
293.16 K, 101 kPa, x2 = 0.7465	0.6073
293.16 K, 101 kPa, x2 = 0.8178	0.6149
293.16 K, 101 kPa, x2 = 0.9632	0.6049
298.15 K, 101 kPa, x1 = 0.0405	0.552
298.15 K, 101 kPa, x1 = 0.0868	0.5572
298.15 K, 101 kPa, x1 = 0.1401	0.5628
298.15 K, 101 kPa, x1 = 0.2022	0.5679
298.15 K, 101 kPa, x1 = 0.2755	0.573
298.15 K, 101 kPa, x1 = 0.3632	0.5779
298.15 K, 101 kPa, x1 = 0.4701	0.5803
298.15 K, 101 kPa, x1 = 0.6033	0.5796
298.15 K, 101 kPa, x1 = 0.7739	0.5809
298.15 K, 101 kPa, x2 = 0.0499	0.551
298.15 K, 101 kPa, x2 = 0.0998	0.547
298.15 K, 101 kPa, x2 = 0.1993	0.54
298.15 K, 101 kPa, x2 = 0.2269	0.5998
298.15 K, 101 kPa, x2 = 0.2998	0.541
298.15 K, 101 kPa, x2 = 0.3977	0.6168
298.15 K, 101 kPa, x2 = 0.4007	0.55
298.15 K, 101 kPa, x2 = 0.4998	0.557
298.15 K, 101 kPa, x2 = 0.5309	0.6284
298.15 K, 101 kPa, x2 = 0.6002	0.562
298.15 K, 101 kPa, x2 = 0.6377	0.6259
298.15 K, 101 kPa, x2 = 0.7	0.572
298.15 K, 101 kPa, x2 = 0.7252	0.6143
298.15 K, 101 kPa, x2 = 0.7983	0.599
298.15 K, 101 kPa, x2 = 0.8	0.569
298.15 K, 101 kPa, x2 = 0.8606	0.5847
298.15 K, 101 kPa, x2 = 0.9	0.561
298.15 K, 101 kPa, x2 = 0.9136	0.5831
298.15 K, 101 kPa, x2 = 0.9501	0.555
298.15 K, 101 kPa, x2 = 0.9597	0.5642
298.16 K, 101 kPa, x2 = 0.4032	0.5406
298.16 K, 101 kPa, x2 = 0.7442	0.5644
298.16 K, 101 kPa, x2 = 0.9625	0.5599
303 K, 101 kPa, x1 = 0.1006	0.549
303 K, 101 kPa, x1 = 0.2012	0.599
303 K, 101 kPa, x1 = 0.3009	0.585
303 K, 101 kPa, x1 = 0.3981	0.578
303 K, 101 kPa, x1 = 0.5016	0.573
303 K, 101 kPa, x1 = 0.6052	0.566
303 K, 101 kPa, x1 = 0.7001	0.562
303 K, 101 kPa, x1 = 0.8095	0.559
303 K, 101 kPa, x1 = 0.9011	0.537
303.15 K, 101.33 kPa, x1 = 0.0724	0.588
303.15 K, 101.33 kPa, x1 = 0.0912	0.531
303.15 K, 101.33 kPa, x1 = 0.1636	0.588
303.15 K, 101.33 kPa, x1 = 0.2105	0.539
303.15 K, 101.33 kPa, x1 = 0.2773	0.542
303.15 K, 101.33 kPa, x1 = 0.3517	0.569
303.15 K, 101.33 kPa, x1 = 0.3723	0.54
303.15 K, 101.33 kPa, x1 = 0.4963	0.529
303.15 K, 101.33 kPa, x1 = 0.5095	0.544
303.15 K, 101.33 kPa, x1 = 0.6126	0.539
303.15 K, 101.33 kPa, x1 = 0.6944	0.515
303.15 K, 101.33 kPa, x1 = 0.7321	0.532
303.15 K, 101.33 kPa, x1 = 0.8307	0.513
303.15 K, 101.33 kPa, x1 = 0.8541	0.527
303.15 K, 101.33 kPa, x1 = 0.888	0.516
303.15 K, 101.33 kPa, x1 = 0.9511	0.52
308.15 K, 101 kPa, x1 = 0.0405	0.4855
308.15 K, 101 kPa, x1 = 0.0868	0.4908
308.15 K, 101 kPa, x1 = 0.1401	0.4965
308.15 K, 101 kPa, x1 = 0.2022	0.5022
308.15 K, 101 kPa, x1 = 0.2755	0.5079
308.15 K, 101 kPa, x1 = 0.3632	0.5132
308.15 K, 101 kPa, x1 = 0.4701	0.517
308.15 K, 101 kPa, x1 = 0.6033	0.5188
308.15 K, 101 kPa, x1 = 0.7739	0.5021
308.15 K, 101.33 kPa, x1 = 0.0912	0.495
308.15 K, 101.33 kPa, x1 = 0.2105	0.502
308.15 K, 101.33 kPa, x1 = 0.2773	0.504
308.15 K, 101.33 kPa, x1 = 0.3723	0.502
308.15 K, 101.33 kPa, x1 = 0.4963	0.494
308.15 K, 101.33 kPa, x1 = 0.6944	0.482
308.15 K, 101.33 kPa, x1 = 0.8307	0.481
308.15 K, 101.33 kPa, x1 = 0.888	0.483
308.15 K, 101.33 kPa, x1 = 0.9511	0.488
313.15 K, 101.33 kPa, x1 = 0.0724	0.5
313.15 K, 101.33 kPa, x1 = 0.1636	0.503
313.15 K, 101.33 kPa, x1 = 0.3517	0.487
313.15 K, 101.33 kPa, x1 = 0.5095	0.485
313.15 K, 101.33 kPa, x1 = 0.6126	0.48
313.15 K, 101.33 kPa, x1 = 0.7321	0.475
313.15 K, 101.33 kPa, x1 = 0.8541	0.464
318.15 K, 101 kPa, x1 = 0.0405	0.4298
318.15 K, 101 kPa, x1 = 0.0868	0.4372
318.15 K, 101 kPa, x1 = 0.1401	0.4452
318.15 K, 101 kPa, x1 = 0.2022	0.4538
318.15 K, 101 kPa, x1 = 0.2755	0.4629
318.15 K, 101 kPa, x1 = 0.3632	0.4726
318.15 K, 101 kPa, x1 = 0.4701	0.4817
318.15 K, 101 kPa, x1 = 0.6033	0.4892
318.15 K, 101 kPa, x1 = 0.7739	0.4809
323.15 K, 101.33 kPa, x1 = 0.0724	0.433
323.15 K, 101.33 kPa, x1 = 0.1636	0.441
323.15 K, 101.33 kPa, x1 = 0.3517	0.407
323.15 K, 101.33 kPa, x1 = 0.5095	0.42
323.15 K, 101.33 kPa, x1 = 0.6126	0.413
323.15 K, 101.33 kPa, x1 = 0.7321	0.41
323.15 K, 101.33 kPa, x1 = 0.8541	0.408
